The conditions of series [1]: from C=CCOC(=O)NC[C@@H]1C[C@H](N(C)C)[C@@H](OC(=O)OC)[C@H](O[C@H]([C@@H](C)C2=C(C)C(=O)OC(C)(C)O2)[C@@](C)(C[C@@H](C)CN[C@H](C)[C@H]2N(CCCCN=[N+]=[N-])C(=O)O[C@]2(C)[C@H](O)CC)OC)O1; ester bond; chlorobenzene; 1.0 mM; 150.0 °C; 16.0 h.
Series [2] relates to P. aeruginosa. Nature of the series: Broth dilution MIC determination (CLSI) against P. aeruginosa strains. Format: cell-based. Conditions: for MIC: Pseudomonas aeruginosa. The method in brief: (§1)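 CLSI broth dilution MIC; panel of unique strains incl. multidrug-resistant ones, focus on macrolide-resistance mechanisms; azithromycin, solithromycin as controls.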
In general terms: In broth dilution the organism is exposed to a series of concentrations in liquid medium.

Series [3] concerns H. influenzae. Nature of the series: Broth dilution MIC determination (CLSI) against H. influenzae strains. The class given is cell-based. The conditions noted are these: for MIC: Haemophilus influenzae. The method in brief: as §1
The test system of series [4] is A. baumannii. The series is described as follows: Broth dilution MIC determination (CLSI) against A. baumannii strains. The class given is cell-based. Conditions: for MIC: Acinetobacter baumannii. The method in brief:
as §1

Series [5] deals with E. coli. Nature of the series: Broth dilution MIC determination (CLSI) against E. coli strains. The class given is cell-based. The conditions noted are these: for MIC: Escherichia coli. A digest of the protocol: as §1
In series [6] the test system is S. aureus. Nature of the series: Broth dilution MIC determination (CLSI) against S. aureus strains. Format: cell-based. Conditions: for MIC: Staphylococcus aureus. The method in brief: as §1
Series [7] deals with S. pneumoniae. Nature of the series: Broth dilution MIC determination (CLSI) against S. pneumoniae strains. Format: cell-based. The conditions noted are these: for MIC: Streptococcus pneumoniae. A digest of the protocol: as §1
In series [8] the test system is K. pneumoniae. The series is described as follows: Broth dilution MIC determination (CLSI) against K. pneumoniae strains. Format: cell-based. The conditions noted are these: for MIC: Klebsiella pneumoniae. A digest of the protocol:
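CLSI broth-dilution MICs across a panel including multidrug- and macrolide-resistant strains, with azithromycin and solithromycin as control compounds.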

The subject of series [9] is E. faecalis. Nature of the series: Broth dilution MIC determination (CLSI) against E. faecalis strains. The class given is cell-based. Conditions: for MIC: Enterococcus faecalis. A digest of the protocol:
as §1

The subject of series [10] is S. pyogenes. Nature of the series: Broth dilution MIC determination (CLSI) against S. pyogenes strains. The class given is cell-based. Conditions: for MIC: Streptococcus pyogenes. The method in brief:
as §1

In brackets after ≈: the same amount, converted by molar mass. Where two headings read alike, the source gives them in different places.

Consider three compounds from US11535643B2, “Macrolides with modified desosamine sugars and uses thereof” (President and Fellows of Harvard College, priority 2015, dated 2022).

Compound `C=CCOC(=O)NC[C@@H]1C[C@H](N(C)C)[C@@H](OC(=O)OC)[C@H](O[C@@H]2[C@@H](C)C(=O)[C@@H](C)C(=O)O[C@H](CC)[C@@]3(C)OC(=O)N(CCCCN=[N+]=[N-])[C@@H]3[C@@H](C)NC[C@H](C)C[C@@]2(C)OC)O1` had a ring closure, yield of all isomers in series [1] of 70%.
Consider `CCC1OC(=O)C(C)C(=O)C(C)C(OC2OC(Cn3cc(-c4cnc(N)s4)nn3)CC(N(C)C)C2O)C(C)(OC)CC(C)CNC(C)C2N(CCCCn3cc(-c4cccc(N)c4)nn3)C(=O)OC12C` (stereo not shown) [FSM-22373], for which the “MIC P. aeruginosa ATCC27853” value in series [2] (ATCC27853) was >32 µg/mL. Moreover, the “MIC P. aeruginosa HPA101-1477” value in series [2] (HPA101-1477) was >32 µg/mL. Also, the “MIC H. influenzae ATCC49247” value in series [3] (ATCC49247) is >32 µg/mL. The “MIC H. influenzae erythro > 4, azithro 1” value in series [3] (erythro > 4, azithro 1) stood at 16 µg/mL (≈ 16.1 µM). Also, the “MIC A. baumannii ATCC19606” value in [4] (ATCC19606) was >32 µg/mL. Further, in series [4] (IMP-4), the “MIC A. baumannii IMP-4” value is >32 µg/mL. For the same compound, in [4] (chromosomal class C), the “MIC A. baumannii chromosomal class C” value was >32 µg/mL. Also, the “MIC A. baumannii imipenem-resistant” value in [4] (imipenem-resistant) was >32 µg/mL. Besides, the “MIC E. coli ATCC25922” value in series [5] (ATCC25922) was >32 µg/mL. Also, the “MIC E. coli CTX-M-14” value in [5] (CTX-M-14) was >32 µg/mL. Also, in series [5] (NDM-1), the “MIC E. coli NDM-1” value was >32 µg/mL. Further, in [5] (TEM-1), the “MIC E. coli TEM-1” value is >32 µg/mL. The “MIC S. aureus ATCC29213” value in [6] (ATCC29213) is >32 µg/mL. For the same compound, the “MIC S. aureus MRSA: USA100” value in series [6] (MRSA: USA100) was >32 µg/mL. Besides, in [6] (MRSA: USA300), the “MIC S. aureus MRSA: USA300” value was >32 µg/mL. Moreover, in series [6] (USA600, GISA), the “MIC S. aureus USA600, GISA” value is >32 µg/mL. The “MIC S. aureus erm A genotype” value in series [6] (erm A genotype) is >32 µg/mL. Also, the “MIC S. pneumoniae ATCC49619” value in series [7] (ATCC49619) was <0.03125 µg/mL. Moreover, the “MIC S. pneumoniae erm B + mef A genotype” value in [7] (erm B + mef A genotype) worked out at 32 µg/mL. Moreover, the “MIC S. pneumoniae erm B + tet(M, O) genotype” value in series [7] (erm B + tet(M, O) genotype) is <0.03125 µg/mL. Further, the “MIC K. pneumoniae ATCC10031” value in series [8] (ATCC10031) is >32 µg/mL. Further, in series [8] (KPC-2), the “MIC K. pneumoniae KPC-2” value was >32 µg/mL. In addition, the “MIC K. pneumoniae SHV-12” value in series [8] (SHV-12) is >32 µg/mL. In [8] (TEM-10), the “MIC K. pneumoniae TEM-10” value amounted to 32 µg/mL (≈ 32.2 µM). Besides, the “MIC E. faecalis ATCC29212” value in series [9] (ATCC29212) was determined as 32 µg/mL (≈ 32.2 µM). The “MIC E. faecalis Vancomycin-resistant” value in series [9] (Vancomycin-resistant) was >32 µg/mL. Further, the “MIC S. pyogenes ATCC19615” value in series [10] (ATCC19615) was 8 µg/mL (≈ 8.05 µM). In addition, the “MIC S. pyogenes macrolide-resistant” value in [10] (macrolide-resistant) was >32 µg/mL.
In the case of `CC[C@H]1OC(=O)[C@@](C)(F)C(=O)[C@H](C)[C@@H](O[C@@H]2O[C@H](C)C[C@H](N(C)C)[C@H]2O)[C@](C)(OC)C[C@@H](C)C(=O)[C@H](C)[C@H]2N(CCCCn3cc(-c4cccc(N)c4)nn3)C(=O)O[C@]12C` [Solithromycin, solithromycin, reference compound], the MIC in series [2] (ATCC27853, read-out: MIC P. aeruginosa ATCC27853) is > 32 µg/mL; in series [2] (read-out: MIC P. aeruginosa HPA101-1477), > 32 µg/mL; in series [3] (ATCC49247, ATCC49247, read-out: MIC H. influenzae ATCC49247) it was 4 µg/mL (≈ 4.73 µM); in series [3] (erythro > 4, azithro 1, read-out: MIC H. influenzae erythro > 4, azithro 1) it was 2 µg/mL (≈ 2.37 µM); in series [4] (ATCC19606, ATCC19606, read-out: MIC A. baumannii ATCC19606) it was 8 µg/mL (≈ 9.47 µM); in [4] (IMP-4, read-out: MIC A. baumannii IMP-4), > 32 µg/mL. Also, the MIC is 8 µg/mL (≈ 9.47 µM) in [4] (chromosomal class C, read-out: MIC A. baumannii chromosomal class C); 4 µg/mL (≈ 4.73 µM) in [4] (imipenem-resistant, read-out: MIC A. baumannii imipenem-resistant); 32 µg/mL (≈ 37.9 µM) in series [5] (ATCC25922, ATCC25922, read-out: MIC E. coli ATCC25922); > 32 µg/mL in [5] (read-out: MIC E. coli CTX-M-14, CTX-M-14); > 32 µg/mL in series [5] (read-out: MIC E. coli NDM-1, NDM-1); 32 µg/mL (≈ 37.9 µM) in series [5] (read-out: MIC E. coli TEM-1, TEM-1). Moreover, the MIC in [6] (ATCC29213, ATCC29213, read-out: MIC S. aureus ATCC29213) is 0.125 µg/mL (≈ 0.148 µM); in series [6] (MRSA / USA100, MRSA: USA100, read-out: MIC S. aureus MRSA: USA100) it was > 32 µg/mL; in series [6] (MRSA / USA300, MRSA: USA300, read-out: MIC S. aureus MRSA: USA300), 1 µg/mL (≈ 1.18 µM); in series [6] (USA600, USA600, GISA, read-out: MIC S. aureus USA600, GISA), > 32 µg/mL; in [6] (read-out: MIC S. aureus erm A genotype), > 32 µg/mL; in series [7] (ATCC49619, ATCC49619, read-out: MIC S. pneumoniae ATCC49619), < 0.0312 µg/mL. Moreover, the MIC in series [7] (erm B + mef A genotype, read-out: MIC S. pneumoniae erm B + mef A genotype) is 0.25 µg/mL; in series [7] (erm B + tet(M, O) genotype, read-out: MIC S. pneumoniae erm B + tet(M, O) genotype), < 0.0312 µg/mL; in [7] (read-out: MIC S. pneumoniae mef A genotype, mef A genotype), 0.125 µg/mL (≈ 0.148 µM); in [8] (ATCC10031, ATCC10031, read-out: MIC K. pneumoniae ATCC10031), 8 µg/mL (≈ 9.47 µM); in series [8] (KPC-2, read-out: MIC K. pneumoniae KPC-2) it was > 32 µg/mL; in series [8] (SHV-12, read-out: MIC K. pneumoniae SHV-12), > 32 µg/mL. In addition, the MIC in series [8] (TEM-10, read-out: MIC K. pneumoniae TEM-10) was > 32 µg/mL; in series [9] (ATCC29212, ATCC29212, read-out: MIC E. faecalis ATCC29212) it was < 0.0312 µg/mL; in series [9] (Vancomycin-resistant, read-out: MIC E. faecalis Vancomycin-resistant), 32 µg/mL (≈ 37.9 µM); in series [10] (ATCC19615, ATCC19615, read-out: MIC S. pyogenes ATCC19615) it was < 0.0312 µg/mL; in [10] (macrolide-resistant, read-out: MIC S. pyogenes macrolide-resistant), 0.0625 µg/mL (≈ 0.074 µM).
